In patent publication US20220265629A1, “TREATMENT OF SYSTOLIC DYSFUNCTION AND HEART FAILURE WITH REDUCED EJECTION FRACTION WITH THE COMPOUND (R)-4-(1-((3-(DIFLUOROMETHYL)-1-METHYL-1H-PYRAZOL-4-YL)SULFONYL)-1-FLUOROETHYL)-N-(ISOXAZOL-3-YL)PIPERIDINE-1-CARBOXAMIDE” (MyoKardia, Inc., priority 2019, published 2022):
Like-named read-outs stand apart in the source and are kept apart here.

Assay: Food effect cross-over study, 200 mg (25 mg tablets), healthy volunteers: plasma pharmacokinetics
Type: in vivo, human
Conditions: for concentration at 36 h / concentration at 48 h / concentration at 72 h / AUC(0-inf) / AUC(0-t) / Cmax / Tmax / MRT / half-life: human, plasma; for concentration at 36 h: 36 hours postdose; for concentration at 48 h: 48 hours postdose; for concentration at 72 h: 72 hours postdose
Source text: This example describes a clinical study for establishing, in healthy volunteers, the effect of a high fat, high caloric meal on the PK profile of Compound I, as compared to administration of the drug in the fasted state. The study also was intended to determine the safety and tolerability after a single oral dose of Compound I in the fed and fasted state in healthy volunteers. The measurements of PK, PD, and other clinical parameters were done as described in Example 1 above.
This study was an open-label, randomized, two-period cross-over study in healthy volunteers aged 18-55 years. Subjects were screened up to 28 days before the first treatment period. Subjects were admitted to the clinical site on Day −1 (the day before dosing) of Period 1. Approximately half of the subjects randomly received a single dose of Compound I on Day 1 of the first treatment period after the ingestion of a high fat, high caloric breakfast, and the remainder were closed in the fasted state. Any subject with a preclose resting HR≥95 beats per minute (bpm) was considered ineligible and was not treated. Any subjects with an acute gastrointestinal disorder which could impact drug/food absorption (e.g., vomiting, diarrhea) were rescheduled. Subjects were confined to the clinic until Day 4, and discharged after the 72-hour postclose PK and laboratory samples and vital signs were obtained. After a washout between dosing from 7 to 10 days (or, after consultation with the Investigator, up to 21 days after initial dosing if the subject was unable to attend within the 7 to 10-day window), the subject was admitted for Period 2. The sequence of fed/fasted versus fasted/fed periods was randomized. Subjects returned after the second treatment period for a safety follow-up visit on Day 7 (±1 day).
In both treatment periods, Compound I was administered with 240 mL of water. In the fasted state, the subjects fasted for 10 hours before and for 4 hours after the administration of Compound I. Water could have been ingested up to 1 hour before and after 1 hour post dosing. In the fed state, the subjects fasted for 10 hours before and for 4 hours after the ingestion of the meal, but could have ingested water up to 1 hour before and 1 hour after dosing. In the fed state, the subjects started ingesting the high fat, high caloric meal within 30 minutes prior to Compound I administration and finished the meal within 30 minutes. The meal contained approximately 800 to 1000 calories with about 50% of the calories from fat. The meal consisted of approximately 150 calories from protein, 250 calories from carbohydrate, and 500-600 calories from fat. An example of the meal was a breakfast consisting of two eggs fried in butter, two strips of bacon, two slices of buttered toast, 4 ounces of hash brown potatoes, and 8 ounces of whole milk.
Each subject received two oral doses of 200 mg of Compound I formulated as 25 mg tablets (8 tablets) in a randomized, cross-over fashion, once in the fasted state and the other time after the ingestion of a high fat, high caloric breakfast. There was a washout of between 7 and 21 days between the administrations of the two closes. The Compound I drug substance was a crystalline, free-base, synthetic molecule with a molecular weight of 435.4.
Plasma drug concentrations were measured as described in Example 1 above. Blood samples to measure Compound I plasma concentration were collected at various time points, including on Day 1 preclose (1 hour prior to dosing) and at 1 (±5 min), 2 (±5 min), 3 (±5 min), 4 (+10 min), 5 (+10 min), 6 (+10 min), 9 (+20 min), 12 (+20 min), 18 (+30 min), 24 (+30 min), 36 (+30 min), 48 (+30 min), and 72 (+30 min) hours postclose on both treatment periods.
To assess the effect of food on the PK of Compound I, the two one-sided t-test procedure was used to construct 90% CI around the geometric mean ratios (fed/fasted) of plasma AUCinf, AUClast, and Cmax. […]

[1] = oral, Fed, read-out: Plasma concentration, Geometric Mean
[2] = oral, Fed, read-out: Plasma concentration, Mean
[3] = oral, Fed, read-out: Plasma concentration, Median
[4] = oral, Fasted, read-out: Plasma concentration, Geometric Mean
[5] = oral, Fasted, read-out: Plasma concentration, Mean
[6] = oral, Fasted, read-out: Plasma concentration, Median
[7] = subjects who completed both fasted and fed periods (N = 9)
[8] = subjects who completed both periods (N = 9)

What does the source list for `Cn1cc(S(=O)(=O)[C@@](C)(F)C2CCN(C(=O)Nc3ccon3)CC2)c(C(F)F)n1` [Compound I, (R)-4-(1-((3-(difluoromethyl)-1-methyl-1H-pyrazol-4-yl)sulfonyl)-1-fluoroethyl)-N-(isoxazol-3-yl)piperidine-1-carboxamide]?
concentration at 36 h [1]: 834 ng/mL; concentration at 36 h [2]: 881 ng/mL; concentration at 36 h [3]: 905 ng/mL; concentration at 48 h [4]: 306 ng/mL; concentration at 48 h [5]: 331 ng/mL; concentration at 48 h [6]: 346 ng/mL; concentration at 48 h [1]: 476 ng/mL; concentration at 48 h [2]: 526 ng/mL; concentration at 48 h [3]: 549 ng/mL; concentration at 72 h [4]: 93.2 ng/mL; concentration at 72 h [5]: 108 ng/mL; concentration at 72 h [6]: 112 ng/mL; concentration at 72 h [1]: 129 ng/mL; concentration at 72 h [2]: 161 ng/mL; concentration at 72 h [3]: 143 ng/mL; AUC(0-inf) (oral, N = 11, read-out: AUCinf, Fasted LSGM): 59400 ng·h/mL; AUC(0-inf) (oral, N = 11, read-out: AUCinf, Fed LSGM): 91600 ng·h/mL; AUC(0-t) (oral, N = 11, read-out: AUClast, Fasted LSGM): 57400 ng·h/mL; AUC(0-t) (oral, N = 11, read-out: AUClast, Fed LSGM): 88400 ng·h/mL; Cmax (oral, N = 11, read-out: Cmax, Fasted LSGM): 2300 ng/mL; Cmax (oral, N = 11, read-out: Cmax, Fed LSGM): 3640 ng/mL; Cmax (oral, fasted state, read-out: Cmax of mean plasma concentrations): 2310 ng/mL; Cmax (oral, fasted state, read-out: Cmax, Mean (SD)): 2350 ng/mL; Tmax (oral, fasted state, read-out: Tmax, Median (range)): 5 h; Tmax (oral, fasted state, read-out: tmax of mean plasma concentrations): 5 h; Cmax (oral, fed state, read-out: Cmax of mean plasma concentrations): 3200 ng/mL; Cmax (oral, fed state, read-out: Cmax, Mean (SD)): 3680 ng/mL; Tmax (oral, fed state, read-out: Tmax, Median (range)): 5.5 h; Tmax (oral, fed state, read-out: tmax of mean plasma concentrations): 6 h; AUC(0-inf) (oral, subjects who completed both fasted and fed periods (N = 9), read-out: AUCinf, Fasted LSGM): 61100 ng·h/mL; AUC(0-inf) (oral, subjects who completed both fasted and fed periods (N = 9), read-out: AUCinf, Fed LSGM): 93900 ng·h/mL; AUC(0-t) (oral, subjects who completed both fasted and fed periods (N = 9), read-out: AUClast, Fasted LSGM): 59000 ng·h/mL; AUC(0-t) (oral, subjects who completed both fasted and fed periods (N = 9), read-out: AUClast, Fed LSGM): 90500 ng·h/mL; Cmax (oral, subjects who completed both fasted and fed periods (N = 9), read-out: Cmax, Fasted LSGM): 2370 ng/mL; Cmax (oral, subjects who completed both fasted and fed periods (N = 9), read-out: Cmax, Fed LSGM): 3700 ng/mL; AUC(0-inf) (po, single 200 mg oral dose, Fasted (N = 10), read-out: AUCinf, Geometric Mean): 61000 ng·h/mL; AUC(0-inf) (po, single 200 mg oral dose, Fasted (N = 10), read-out: AUCinf, Mean): 62600 ng·h/mL; AUC(0-inf) (po, single 200 mg oral dose, Fasted (N = 10), read-out: AUCinf, Median): 66700 ng·h/mL; AUC(0-t) (po, single 200 mg oral dose, Fasted (N = 10), read-out: AUClast, Geometric Mean): 58800 ng·h/mL; AUC(0-t) (po, single 200 mg oral dose, Fasted (N = 10), read-out: AUClast, Mean): 60200 ng·h/mL; AUC(0-t) (po, single 200 mg oral dose, Fasted (N = 10), read-out: AUClast, Median): 64400 ng·h/mL; Cmax (po, single 200 mg oral dose, Fasted (N = 10), read-out: Cmax, Geometric Mean): 2320 ng/mL; Cmax (po, single 200 mg oral dose, Fasted (N = 10), read-out: Cmax, Mean): 2350 ng/mL; Cmax (po, single 200 mg oral dose, Fasted (N = 10), read-out: Cmax, Median): 2400 ng/mL; MRT (po, single 200 mg oral dose, Fasted (N = 10), read-out: MRT, Geometric Mean): 22.3 h; MRT (po, single 200 mg oral dose, Fasted (N = 10), read-out: MRT, Mean): 22.6 h; MRT (po, single 200 mg oral dose, Fasted (N = 10), read-out: MRT, Median): 23.9 h; half-life (po, single 200 mg oral dose, Fasted (N = 10), read-out: T1/2, z, Geometric Mean (converted)): 14.1 h; half-life (po, single 200 mg oral dose, Fasted (N = 10), read-out: T1/2, z, Mean (converted)): 14.3 h; half-life (po, single 200 mg oral dose, Fasted (N = 10), read-out: T1/2, z, Median (converted)): 14.9 h; Tmax (po, single 200 mg oral dose, Fasted (N = 10), read-out: Tmax, Geometric Mean): 4.58 h; Tmax (po, single 200 mg oral dose, Fasted (N = 10), read-out: Tmax, Mean): 4.7 h; Tmax (po, single 200 mg oral dose, Fasted (N = 10), read-out: Tmax, Median): 5 h; AUC(0-inf) (po, single 200 mg oral dose, Fed (N = 10), read-out: AUCinf, Geometric Mean): 91600 ng·h/mL; AUC(0-inf) (po, single 200 mg oral dose, Fed (N = 10), read-out: AUCinf, Mean): 93500 ng·h/mL; AUC(0-inf) (po, single 200 mg oral dose, Fed (N = 10), read-out: AUCinf, Median): 94000 ng·h/mL; AUC(0-t) (po, single 200 mg oral dose, Fed (N = 10), read-out: AUClast, Geometric Mean): 88400 ng·h/mL; AUC(0-t) (po, single 200 mg oral dose, Fed (N = 10), read-out: AUClast, Mean): 89900 ng·h/mL; AUC(0-t) (po, single 200 mg oral dose, Fed (N = 10), read-out: AUClast, Median): 89300 ng·h/mL; Cmax (po, single 200 mg oral dose, Fed (N = 10), read-out: Cmax, Geometric Mean): 3640 ng/mL; Cmax (po, single 200 mg oral dose, Fed (N = 10), read-out: Cmax, Mean): 3680 ng/mL; Cmax (po, single 200 mg oral dose, Fed (N = 10), read-out: Cmax, Median): 3770 ng/mL; MRT (po, single 200 mg oral dose, Fed (N = 10), read-out: MRT, Geometric Mean): 22.6 h; MRT (po, single 200 mg oral dose, Fed (N = 10), read-out: MRT, Mean): 23.1 h; MRT (po, single 200 mg oral dose, Fed (N = 10), read-out: MRT, Median): 23.6 h; half-life (po, single 200 mg oral dose, Fed (N = 10), read-out: T1/2, z, Geometric Mean (converted)): 13.6 h; half-life (po, single 200 mg oral dose, Fed (N = 10), read-out: T1/2, z, Mean (converted)): 13.8 h; half-life (po, single 200 mg oral dose, Fed (N = 10), read-out: T1/2, z, Median (converted)): 13.5 h; Tmax (po, single 200 mg oral dose, Fed (N = 10), read-out: Tmax, Geometric Mean): 6.02 h; Tmax (po, single 200 mg oral dose, Fed (N = 10), read-out: Tmax, Mean): 6.9 h; Tmax (po, single 200 mg oral dose, Fed (N = 10), read-out: Tmax, Median): 5.5 h; AUCinf, Geometric Mean Ratio - Fed/Fasted (% of Reference) [7]: 153.63%; AUClast, Geometric Mean Ratio - Fed/Fasted (% of Reference) [7]: 153.20%; Cmax, Geometric Mean Ratio - Fed/Fasted (% of Reference) [7]: 156.43%; Cmax, geometric mean ratio (fed/fasted) [8]: 156.43%; increases for AUCinf, AUC0-t and Cmax in the fed state [8]: approximately 50%
